The text below walks through data of BindingDB's records for doi:10.1016/S0960-894X(01)80999-9 (1993).

Test [1] in a line: In vitro antagonistic activity towards LTB4 receptor was evaluated by inhibition of binding of [3H]LTB4 to human neutrophils.
The target of test [2] is Leukotriene B4 receptor (Cavia porcellus). Briefly: Compound was evaluated for inhibition of binding of [3H]LTB4 to LTB4 receptor in guinea-pig lung membranes.

For the molecule `CCc1cc(C(C)=O)c(O)cc1OCCCOc1ccc2c(=O)c3cc(C(=O)O)ccc3oc2c1` [disodium 6-[3-(4-acetyl-2-ethyl-5-olatophenoxy)propoxy]-9-oxo-9H-2-xanthenecarboxylate], the Ki – broadly, the equilibrium dissociation constant of an inhibitor or competing ligand from its target – in test [1] was determined as 751 nM. `COc1ccc(/C=C/CCCCOc2ccc3c(=O)c4cc(C(=O)O)ccc4oc3c2CCC(=O)O)cc1` [LY-210073] registered a Ki in test [2] of 45 nM. That is a double-digit nanomolar value.

In the case of `CCc1cc(C(C)=O)c(O)cc1OCCCOc1ccc(C(=O)c2cccc(C(=O)O)c2)cc1CCC(=O)O` [3-[2-[3-(4-acetyl-2-ethyl-5-olatophenoxy)propoxy]-5-(3-carboxylatobenzoyl)phenyl]propanoate], the Ki in test [1] worked out at 6.8 nM.

For the molecule `COc1ccc(/C=C/CCCCOc2ccc(C(=O)c3cccc(C(=O)O)c3)cc2CCC(=O)O)cc1` [(Z)-3-{3-(2-Carboxy-ethyl)-4-[6-(4-methoxy-phenyl)-hex-5-enyloxy]-benzoyl}-benzoic acid], the inhibitory constant (Ki) in test [1] stood at 7.8 nM. The Ki values of the last two molecules are within 1.5-fold of each other.
